Assay results: patent US20260224584A1 (priority 2023, published 2026)
Where a name gives a salt, the structure may show the parent alone.

system: Human WB (90%) CD69; test: Human WB (90%) CD69; format: cell-based; conditions: read-out: Human WB (90%) CD69 IC50 (nM); human whole blood (90%), CD69 readout

Compound | IC50
CC(C)N1CCN(c2ccc(-c3cc(NCCN4CCC(F)(F)CC4)c4nc(-c5ccc(S(C)(=O)=O)cc5)n(C)c4c3)cc2)CC1 [Example 35, N-(2-(4,4-difluoropiperidin-1-yl)ethyl)-6-(4-(4-isopropylpiperazin-1-yl)phenyl)-1-methyl-2-(4-(methylsulfonyl)phenyl)-1H-benzo[d]imidazol-4-amine] | 571 nM
Cc1nc2c(NCCN3CCOCC3)cc(-c3ccc(N4CCN(C(C)C)CC4)cc3)cc2n1C [Example 4, 6-(4-(4-isopropylpiperazin-1-yl)phenyl)-1,2-dimethyl-N-(2-morpholinoethyl)-1H-benzo[d]imidazol-4-amine] | 106 nM
Cc1nc2c(Nc3ccc(N4CCOCC4)nn3)cc(-c3ccc(N4CCN(C(C)C)CC4)cc3)cc2n1C [Example 17, 6-(4-(4-isopropylpiperazin-1-yl)phenyl)-1,2-dimethyl-N-(6-morpholinopyridazin-3-yl)-1H-benzo[d]imidazol-4-amine, TFA] | 137 nM
Cc1cc(C)nc(Nc2cc(-c3ccc(N4CCN(C(C)C)CC4)cc3)cc3c2nc(C2CCOCC2)n3C)c1 [Example 48, N-(4,6-dimethylpyridin-2-yl)-6-(4-(4-isopropylpiperazin-1-yl)phenyl)-1-methyl-2-(tetrahydro-2H-pyran-4-yl)-1H-benzo[d]imidazol-4-amine, TFA] | 109 nM
COc1ccnc(Nc2cc(-c3ccc(N4CCN(C(C)C)CC4)cc3)cc3c2nc(C)n3C)c1 [Example 23, 6-(4-(4-isopropylpiperazin-1-yl)phenyl)-N-(4-methoxypyridin-2-yl)-1,2-dimethyl-1H-benzo[d]imidazol-4-amine, TFA] | 370 nM
CC(C)N1CCN(c2ccc(-c3cc(NCCN4CCOCC4)c4nc(C5CCC5)n(C)c4c3)cc2)CC1 [Example 32, 2-cyclobutyl-6-(4-(4-isopropylpiperazin-1-yl)phenyl)-1-methyl-N-(2-morpholinoethyl)-1H-benzo[d]imidazol-4-amine, 2 TFA] | 79 nM
Cc1nc2c(Nc3ccc(N4CCOCC4)nc3)cc(-c3ccc(N4CCN(C(C)C)CC4)cc3)cc2n1C [Example 18, 6-(4-(4-isopropylpiperazin-1-yl)phenyl)-1,2-dimethyl-N-(6-morpholinopyridin-3-yl)-1H-benzo[d]imidazol-4-amine] | 728 nM
Cc1nc2c(N3CCN(C4COC4)CC3)cc(-c3ccc(N4CCN(C(C)C)CC4)cc3)cc2n1C [Example 58, 6-(4-(4-isopropylpiperazin-1-yl)phenyl)-1,2-dimethyl-4-(4-(oxetan-3-yl)piperazin-1-yl)-1H-benzo[d]imidazole] | 860 nM
Cc1nc2c(N3CCC(CNC4COC4)CC3)cc(-c3ccc(N4CCN(C(C)C)CC4)cc3)cc2n1C [Example 60, N-((1-(6-(4-(4-isopropylpiperazin-1-yl)phenyl)-1,2-dimethyl-1H-benzo[d]imidazol-4-yl)piperidin-4-yl)methyl)oxetan-3-amine] | 535 nM
Cc1cc(C)nc(Nc2cc(-c3ccc(N4CCN(C(C)C)CC4)cc3)cc3c2nc(C2CCC2)n3C)c1 [Example 34, 2-cyclobutyl-N-(4,6-dimethylpyridin-2-yl)-6-(4-(4-isopropylpiperazin-1-yl)phenyl)-1-methyl-1H-benzo[d]imidazol-4-amine, TFA] | 587 nM
Cc1cc(C)nc(Nc2cc(-c3ccc(N4CCN(C(C)C)CC4)cc3)cc3c2ncn3C)c1 [Example 40, N-(4,6-dimethylpyridin-2-yl)-6-(4-(4-isopropylpiperazin-1-yl)phenyl)-1-methyl-1H-benzo[d]imidazol-4-amine] | 565 nM
Cc1cc(C)nc(Nc2cc(-c3ccc(N4CCN(C(C)C)CC4)cc3)cc3c2nc(-c2ccc(S(C)(=O)=O)cc2)n3C)c1 [Example 29, N-(4,6-dimethylpyridin-2-yl)-6-(4-(4-isopropylpiperazin-1-yl)phenyl)-1-methyl-2-(4-(methylsulfonyl)phenyl)-1H-benzo[d]imidazol-4-amine] | 340 nM
CC(C)N1CCN(c2ccc(-c3cc(NCCN4CCOCC4)c4nc(C5CC5)n(C)c4c3)cc2)CC1 [Example 31, 2-cyclopropyl-6-(4-(4-isopropylpiperazin-1-yl)phenyl)-1-methyl-N-(2-morpholinoethyl)-1H-benzo[d]imidazol-4-amine, 2 TFA] | 302 nM
CC(C)N1CCN(c2ccc(-c3cc(NCCN4CCN(S(C)(=O)=O)CC4)c4nc(-c5ccc(S(C)(=O)=O)cc5)n(C)c4c3)cc2)CC1 [Example 28, 6-(4-(4-isopropylpiperazin-1-yl)phenyl)-1-methyl-2-(4-(methylsulfonyl)phenyl)-N-(2-(4-(methylsulfonyl)piperazin-1-yl)ethyl)-1H-benzo[d]imidazol-4-amine, 2 TFA] | 807 nM
CC(C)N1CCN(c2ccc(-c3cc(NCCN4CCOCC4)c4ncn(C)c4c3)cc2)CC1 [Example 39, 6-(4-(4-isopropylpiperazin-1-yl)phenyl)-1-methyl-N-(2-morpholinoethyl)-1H-benzo[d]imidazol-4-amine, 2 TFA] | 283 nM
Cc1nc2c(NCc3ccc(CN4CCOCC4)cc3)cc(-c3ccc(N4CCN(C(C)C)CC4)cc3)cc2n1C [Example 14, 6-(4-(4-isopropylpiperazin-1-yl)phenyl)-1,2-dimethyl-N-(4-(morpholinomethyl)benzyl)-1H-benzo[d]imidazol-4-amine] | 31 nM
CC(C)N1CCN(c2ccc(-c3cc(NCCN4CCOCC4)c4nc(-c5ccc(S(C)(=O)=O)cc5)n(C)c4c3)cc2)CC1 [Example 63, 6-(4-(4-isopropylpiperazin-1-yl)phenyl)-1-methyl-2-(4-(methylsulfonyl)phenyl)-N-(2-morpholinoethyl)-1H-benzo[d]imidazol-4-amine] | 121 nM
Cc1nc2c(Nc3ccc(N4CCOCC4)cn3)cc(-c3ccc(N4CCN(C(C)C)CC4)cc3)cc2n1C [Example 16, 6-(4-(4-isopropylpiperazin-1-yl)phenyl)-1,2-dimethyl-N-(5-morpholinopyridin-2-yl)-1H-benzo[d]imidazol-4-amine] | 207 nM
CC(C)N1CCN(c2ccc(-c3cc(NC4CCN(S(C)(=O)=O)CC4)c4nc(N(C)C)n(C)c4c3)cc2)CC1 [Example 54, 6-(4-(4-isopropylpiperazin-1-yl)phenyl)-N2,N2,1-trimethyl-N4-(1-(methylsulfonyl)piperidin-4-yl)-1H-benzo[d]imidazole-2,4-diamine] | 673 nM
Cc1nc2c(Nc3cnccn3)cc(-c3ccc(N4CCN(C(C)C)CC4)cc3)cc2n1C [Example 20, 6-(4-(4-isopropylpiperazin-1-yl)phenyl)-1,2-dimethyl-N-(pyrazin-2-yl)-1H-benzo[d]imidazol-4-amine] | 1270 nM
CC(C)N1CCN(c2ccc(-c3cc(NCc4ccc(CN5CCOCC5)cc4)c4nc(C5COC5)n(C)c4c3)cc2)CC1 [Example 46, 6-(4-(4-isopropylpiperazin-1-yl)phenyl)-1-methyl-N-(4-(morpholinomethyl)benzyl)-2-(oxetan-3-yl)-1H-benzo[d]imidazol-4-amine] | 534 nM
CC(C)N1CCN(c2ccc(-c3cc(NC4CCN(S(C)(=O)=O)CC4)c4nc(C5CCN(S(C)(=O)=O)CC5)n(C)c4c3)cc2)CC1 [Example 50, 6-(4-(4-isopropylpiperazin-1-yl)phenyl)-1-methyl-N,2-bis(1-(methylsulfonyl)piperidin-4-yl)-1H-benzo[d]imidazol-4-amine] | 1530 nM
CC(C)N1CCN(c2ccc(-c3cc(N(C)CCN(C)C)c4nc(-c5ccc(S(C)(=O)=O)cc5)n(C)c4c3)cc2)CC1 [Example 2, N1-(6-(4-(4-isopropylpiperazin-1-yl)phenyl)-1-methyl-2-(4-(methylsulfonyl)phenyl)-1H-benzo[d]imidazol-4-yl)-N^1,N^2,N^2-trimethylethane-1,2-diamine] | 199 nM
CC(C)N1CCN(c2ccc(-c3cc(N4CCN(C(C)C)CC4)c4nc(-c5ccc(S(C)(=O)=O)cc5)n(C)c4c3)cc2)CC1 [Example 1, 4-(4-isopropylpiperazin-1-yl)-6-(4-(4-isopropylpiperazin-1-yl)phenyl)-1-methyl-2-(4-(methylsulfonyl)phenyl)-1H-benzo[d]imidazole] | 77 nM
Cc1cc(C)nc(Nc2cc(-c3ccc(N4CCN(C(C)C)CC4)cc3)cc3c2nc(C2CCN(S(C)(=O)=O)CC2)n3C)c1 [Example 27, N-(4,6-dimethylpyridin-2-yl)-6-(4-(4-isopropylpiperazin-1-yl)phenyl)-1-methyl-2-(1-(methylsulfonyl)piperidin-4-yl)-1H-benzo[d]imidazol-4-amine] | 284 nM
Cc1nc2c(NC3CCS(=O)(=O)CC3)cc(-c3ccc(N4CCN(C(C)C)CC4)cc3)cc2n1C [Example 9, 4-((6-(4-(4-isopropylpiperazin-1-yl)phenyl)-1,2-dimethyl-1H-benzo[d]imidazol-4-yl)amino)tetrahydro-2H-thiopyran 1,1-dioxide] | 1120 nM
CC(C)N1CCN(c2ccc(-c3cc(NCCN4CCCC4)c4nc(-c5ccc(S(C)(=O)=O)cc5)n(C)c4c3)cc2)CC1 [Example 3, 6-(4-(4-isopropylpiperazin-1-yl)phenyl)-1-methyl-2-(4-(methylsulfonyl)phenyl)-N-(2-(pyrrolidin-1-yl)ethyl)-1H-benzo[d]imidazol-4-amine] | 87 nM
CC(C)N1CCN(c2ccc(-c3cc(NCc4cccc(S(C)(=O)=O)c4)c4nc(-c5ccc(S(C)(=O)=O)cc5)n(C)c4c3)cc2)CC1 [Example 55, 6-(4-(4-isopropylpiperazin-1-yl)phenyl)-1-methyl-N-(3-(methylsulfonyl)benzyl)-2-(4-(methylsulfonyl)phenyl)-1H-benzo[d]imidazol-4-amine] | 1130 nM
CC(C)N1CCN(c2ccc(-c3cc(Nc4ccc(N5CCOCC5)nn4)c4nc(-c5ccc(S(C)(=O)=O)cc5)n(C)c4c3)cc2)CC1 [Example 37, 6-(4-(4-isopropylpiperazin-1-yl)phenyl)-1-methyl-2-(4-(methylsulfonyl)phenyl)-N-(6-morpholinopyridazin-3-yl)-1H-benzo[d]imidazol-4-amine, TFA] | 167 nM
Cc1cc(C)nc(Nc2cc(-c3ccc(N4CCN(C5CCOCC5)CC4)cc3)cc3c2nc(-c2ccc(S(C)(=O)=O)cc2)n3C)c1 [Example 38, N-(4,6-dimethylpyridin-2-yl)-1-methyl-2-(4-(methylsulfonyl)phenyl)-6-(4-(4-(tetrahydro-2H-pyran-4-yl)piperazin-1-yl)phenyl)-1H-benzo[d]imidazol-4-amine] | 899 nM
